Test results as given in ChEMBL document CHEMBL4800722, “Data for DCP probe BI 605906” (2021).

How the values were obtained:
[1] = target: Eukaryotic elongation factor 2 kinase (Homo sapiens) (UniProt O00418); test: EF2K DUNDEE kinase screen (BI); conditions: filed as activator, Compound concentration 10.0 uM
[2] = target: Phosphatidylinositol 3-kinase regulatory subunit beta/Phosphatidylinositol 4,5-bisphosphate 3-kinase catalytic subunit beta isoform (Homo sapiens) (UniProt P42338+O00459); test: PIK3CB/PIK3R2 Invitrogen Lab (UK) kinase screen (BI); format: protein-complex assay; conditions: Compound concentration 1.0 uM
[3] = target: Mitogen-activated protein kinase 12 (Homo sapiens) (UniProt P53778); conditions: Compound concentration 1.0 uM
[4] = target: Mitogen-activated protein kinase kinase kinase kinase 4 (Homo sapiens) (UniProt O95819)
[5] = target: Tyrosine-protein kinase Tec (Homo sapiens) (UniProt P42680); conditions: Compound concentration 1.0 uM
[6] = target: Muscarinic acetylcholine receptor M2 (Homo sapiens) (UniProt P08172); conditions: Compound concentration 10.0 uM
[7] = target: Macrophage-stimulating protein receptor (Homo sapiens) (UniProt Q04912); conditions: Compound concentration 1.0 uM
[8] = target: Voltage-dependent L-type calcium channel subunit alpha-1C (CA+/DHPSI/RA) (Rattus norvegicus, UniProt P22002); test: CA+/DHPSI/RA Eurofins SafetyScreen44 (BI); conditions: read-out: % Ctrl
[9] = target: Bone morphogenetic protein receptor type-2 (Homo sapiens) (UniProt Q13873); test: BMPR2 Invitrogen Lab (UK) kinase screen (BI); conditions: Compound concentration 1.0 uM
[10] = target: Serine/threonine-protein kinase SBK1 (Homo sapiens) (UniProt Q52WX2); conditions: Compound concentration 1.0 uM
[11] = target: MAP/microtubule affinity-regulating kinase 3 (Homo sapiens) (UniProt P27448); test: MARK3 DUNDEE kinase screen (BI); conditions: Compound concentration 10.0 uM
[12] = target: Serine/threonine-protein kinase tousled-like 2 (Homo sapiens) (UniProt Q86UE8); conditions: Compound concentration 1.0 uM
[13] = target: NUAK family SNF1-like kinase 2 (Homo sapiens) (UniProt Q9H093); test: NUAK2 Invitrogen Lab (UK) kinase screen (BI); conditions: Compound concentration 1.0 uM
[14] = target: Calcium/calmodulin-dependent protein kinase type II subunit gamma (Homo sapiens) (UniProt Q13555); conditions: Compound concentration 1.0 uM
[15] = system: Serine/threonine-protein kinase B-raf (Homo sapiens), P15056 [V600E]; test: BRAF V599E Invitrogen Lab (UK) kinase screen (BI); conditions: Compound concentration 10.0 uM
[16] = target: 5-hydroxytryptamine receptor 4 (Cavia porcellus) (UniProt O70528); conditions: Compound concentration 10.0 uM
[17] = target: Activin receptor type-2B (Homo sapiens) (UniProt Q13705); conditions: Compound concentration 1.0 uM
[18] = target: Serine/threonine-protein kinase Nek1 (Homo sapiens) (UniProt Q96PY6)
[19] = target: Ribosomal protein S6 kinase beta-1 (Homo sapiens) (UniProt P23443)
[20] = target: Cyclin-dependent kinase 2/cyclin A (Homo sapiens) (UniProt P24941+P20248+P78396); conditions: Compound concentration 1.0 uM
[21] = target: 5-hydroxytryptamine receptor 1A (Homo sapiens) (UniProt P08908); conditions: Compound concentration 10.0 uM
[22] = target: Leucine-rich repeat serine/threonine-protein kinase 2 (Homo sapiens) (UniProt Q5S007); test: LRRK2_FL Invitrogen Lab (UK) kinase screen (BI); conditions: Compound concentration 1.0 uM
[23] = target: Serine/threonine-protein kinase LATS2 (Homo sapiens) (UniProt Q9NRM7); test: LATS2 Invitrogen Lab (UK) kinase screen (BI); conditions: Compound concentration 1.0 uM
[24] = target: ATP-sensitive inward rectifier potassium channel 1 isoform X1 (Mesocricetus auratus) (UniProt A0A1U8CU73); test: K+/KATP/HA Eurofins SafetyScreen44 (BI); conditions: Cricetinae; Compound concentration 10.0 uM
[25] = target: Casein kinase I isoform alpha (Homo sapiens) (UniProt P48729); conditions: Compound concentration 1.0 uM
[26] = target: Mitogen-activated protein kinase 3 (Homo sapiens) (UniProt P27361); conditions: Compound concentration 1.0 uM
[27] = target: Leukotriene C4 synthase (Cavia porcellus) (UniProt A6XA80); conditions: Compound concentration 10.0 uM
[28] = target: Mitogen-activated protein kinase 13 (Homo sapiens) (UniProt O15264); conditions: Compound concentration 1.0 uM
[29] = target: DNA-dependent protein kinase catalytic subunit (Homo sapiens) (UniProt P78527); conditions: Compound concentration 1.0 uM
[30] = target: Delta-type opioid receptor (Homo sapiens) (UniProt P41143); conditions: Compound concentration 10.0 uM
[31] = target: Cyclin-dependent kinase 19 (Homo sapiens) (UniProt Q9BWU1); conditions: Compound concentration 1.0 uM
[32] = target: 3-phosphoinositide-dependent protein kinase 1 (Homo sapiens) (UniProt O15530)
[33] = target: Serine/threonine-protein kinase PAK 2 (Homo sapiens) (UniProt Q13177); conditions: Compound concentration 1.0 uM
[34] = target: Activated CDC42 kinase 1 (Homo sapiens) (UniProt Q07912); conditions: Compound concentration 1.0 uM
[35] = target: MAP/microtubule affinity-regulating kinase 4 (Homo sapiens) (UniProt Q96L34); conditions: Compound concentration 1.0 uM
[36] = target: Dual specificity protein kinase CLK2 (Homo sapiens) (UniProt P49760); conditions: Compound concentration 1.0 uM
[37] = target: CDK4/Cyclin D3 (Homo sapiens) (UniProt P11802+P30281); conditions: Compound concentration 1.0 uM
[38] = target: Serine/threonine-protein kinase 32C (Homo sapiens) (UniProt Q86UX6); conditions: Compound concentration 1.0 uM
[39] = target: Ephrin type-A receptor 6 (Homo sapiens) (UniProt Q9UF33); conditions: Compound concentration 1.0 uM
[40] = target: TGF-beta receptor type-1 (Homo sapiens) (UniProt P36897); conditions: Compound concentration 1.0 uM
[41] = target: GABA B receptor (Rattus norvegicus) (UniProt Q9Z0U4+O88871); test: GABAB/RA Eurofins SafetyScreen44 (BI); format: protein-complex assay; conditions: Compound concentration 10.0 uM

Chain of Voltage-dependent L-type calcium channel subunit alpha-1C (CA+/DHPSI/RA) (P22002 whole entry): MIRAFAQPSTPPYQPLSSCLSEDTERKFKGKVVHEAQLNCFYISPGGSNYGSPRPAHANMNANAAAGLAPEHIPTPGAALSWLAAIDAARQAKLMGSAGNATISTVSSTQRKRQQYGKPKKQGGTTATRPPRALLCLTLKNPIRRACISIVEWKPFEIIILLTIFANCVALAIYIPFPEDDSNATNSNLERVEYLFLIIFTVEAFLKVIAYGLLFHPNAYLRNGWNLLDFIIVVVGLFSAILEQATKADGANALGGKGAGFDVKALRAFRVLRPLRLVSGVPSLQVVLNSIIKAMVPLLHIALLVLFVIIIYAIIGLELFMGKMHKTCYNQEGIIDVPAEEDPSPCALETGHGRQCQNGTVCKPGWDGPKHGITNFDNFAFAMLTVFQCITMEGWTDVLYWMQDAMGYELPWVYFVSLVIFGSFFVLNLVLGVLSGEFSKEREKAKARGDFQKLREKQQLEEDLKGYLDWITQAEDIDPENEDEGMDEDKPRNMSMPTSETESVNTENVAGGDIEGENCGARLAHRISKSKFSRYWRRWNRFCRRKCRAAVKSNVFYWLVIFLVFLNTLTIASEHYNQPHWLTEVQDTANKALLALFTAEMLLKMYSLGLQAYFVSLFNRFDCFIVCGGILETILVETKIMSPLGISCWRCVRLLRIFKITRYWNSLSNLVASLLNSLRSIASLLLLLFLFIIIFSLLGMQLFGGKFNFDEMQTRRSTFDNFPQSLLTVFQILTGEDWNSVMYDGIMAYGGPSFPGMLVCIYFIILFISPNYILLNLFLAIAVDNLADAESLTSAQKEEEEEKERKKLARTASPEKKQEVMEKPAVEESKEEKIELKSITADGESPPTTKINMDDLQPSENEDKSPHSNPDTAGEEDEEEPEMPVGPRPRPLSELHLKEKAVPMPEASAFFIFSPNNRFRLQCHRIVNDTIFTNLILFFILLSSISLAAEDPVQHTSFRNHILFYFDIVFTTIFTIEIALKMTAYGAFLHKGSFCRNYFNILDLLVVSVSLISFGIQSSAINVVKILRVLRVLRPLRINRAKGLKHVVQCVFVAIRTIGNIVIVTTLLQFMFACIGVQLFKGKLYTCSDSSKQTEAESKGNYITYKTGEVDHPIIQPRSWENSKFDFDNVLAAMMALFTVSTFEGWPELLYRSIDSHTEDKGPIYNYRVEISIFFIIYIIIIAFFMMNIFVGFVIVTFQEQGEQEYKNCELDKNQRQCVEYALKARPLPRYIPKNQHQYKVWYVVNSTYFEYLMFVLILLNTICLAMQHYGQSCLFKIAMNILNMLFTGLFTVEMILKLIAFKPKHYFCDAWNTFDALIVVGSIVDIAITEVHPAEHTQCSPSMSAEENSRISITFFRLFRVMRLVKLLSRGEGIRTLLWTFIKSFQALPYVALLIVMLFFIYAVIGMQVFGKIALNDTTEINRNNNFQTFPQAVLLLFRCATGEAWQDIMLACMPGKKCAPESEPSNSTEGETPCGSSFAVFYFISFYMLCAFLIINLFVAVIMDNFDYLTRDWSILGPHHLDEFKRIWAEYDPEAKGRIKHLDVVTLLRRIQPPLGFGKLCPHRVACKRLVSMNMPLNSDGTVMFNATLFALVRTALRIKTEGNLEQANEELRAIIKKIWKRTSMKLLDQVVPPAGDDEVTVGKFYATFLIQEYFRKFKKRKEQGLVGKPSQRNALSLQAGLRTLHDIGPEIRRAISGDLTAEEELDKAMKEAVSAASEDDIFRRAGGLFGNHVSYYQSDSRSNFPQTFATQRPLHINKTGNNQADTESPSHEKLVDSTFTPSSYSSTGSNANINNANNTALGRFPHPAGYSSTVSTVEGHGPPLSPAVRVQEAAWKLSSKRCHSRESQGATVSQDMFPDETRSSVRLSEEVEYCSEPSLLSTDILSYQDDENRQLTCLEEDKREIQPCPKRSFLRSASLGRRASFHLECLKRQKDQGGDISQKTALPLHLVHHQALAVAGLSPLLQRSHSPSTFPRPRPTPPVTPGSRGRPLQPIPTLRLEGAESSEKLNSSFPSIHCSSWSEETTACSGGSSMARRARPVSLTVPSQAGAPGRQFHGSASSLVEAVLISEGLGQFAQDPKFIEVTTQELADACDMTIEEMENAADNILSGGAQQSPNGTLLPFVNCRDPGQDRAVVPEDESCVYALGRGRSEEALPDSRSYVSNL
Chain of 3-phosphoinositide-dependent protein kinase 1 (Homo sapiens) (O15530 whole entry, looked up): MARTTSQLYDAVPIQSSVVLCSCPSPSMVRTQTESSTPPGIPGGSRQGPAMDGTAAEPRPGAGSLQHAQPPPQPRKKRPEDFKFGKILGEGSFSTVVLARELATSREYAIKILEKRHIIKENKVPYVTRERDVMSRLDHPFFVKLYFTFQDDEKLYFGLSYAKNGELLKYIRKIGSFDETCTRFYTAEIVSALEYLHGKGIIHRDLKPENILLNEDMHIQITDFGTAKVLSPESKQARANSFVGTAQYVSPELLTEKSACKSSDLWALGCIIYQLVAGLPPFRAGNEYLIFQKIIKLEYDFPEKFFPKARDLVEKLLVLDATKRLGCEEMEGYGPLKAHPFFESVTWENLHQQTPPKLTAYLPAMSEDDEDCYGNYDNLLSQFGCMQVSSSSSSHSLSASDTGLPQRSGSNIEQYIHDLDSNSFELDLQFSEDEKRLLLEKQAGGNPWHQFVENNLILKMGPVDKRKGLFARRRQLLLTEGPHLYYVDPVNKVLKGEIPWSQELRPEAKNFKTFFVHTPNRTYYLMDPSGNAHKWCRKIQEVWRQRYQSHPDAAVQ
Chain of Mitogen-activated protein kinase kinase kinase kinase 4 (Homo sapiens) (O95819 2-1239 limits assumed): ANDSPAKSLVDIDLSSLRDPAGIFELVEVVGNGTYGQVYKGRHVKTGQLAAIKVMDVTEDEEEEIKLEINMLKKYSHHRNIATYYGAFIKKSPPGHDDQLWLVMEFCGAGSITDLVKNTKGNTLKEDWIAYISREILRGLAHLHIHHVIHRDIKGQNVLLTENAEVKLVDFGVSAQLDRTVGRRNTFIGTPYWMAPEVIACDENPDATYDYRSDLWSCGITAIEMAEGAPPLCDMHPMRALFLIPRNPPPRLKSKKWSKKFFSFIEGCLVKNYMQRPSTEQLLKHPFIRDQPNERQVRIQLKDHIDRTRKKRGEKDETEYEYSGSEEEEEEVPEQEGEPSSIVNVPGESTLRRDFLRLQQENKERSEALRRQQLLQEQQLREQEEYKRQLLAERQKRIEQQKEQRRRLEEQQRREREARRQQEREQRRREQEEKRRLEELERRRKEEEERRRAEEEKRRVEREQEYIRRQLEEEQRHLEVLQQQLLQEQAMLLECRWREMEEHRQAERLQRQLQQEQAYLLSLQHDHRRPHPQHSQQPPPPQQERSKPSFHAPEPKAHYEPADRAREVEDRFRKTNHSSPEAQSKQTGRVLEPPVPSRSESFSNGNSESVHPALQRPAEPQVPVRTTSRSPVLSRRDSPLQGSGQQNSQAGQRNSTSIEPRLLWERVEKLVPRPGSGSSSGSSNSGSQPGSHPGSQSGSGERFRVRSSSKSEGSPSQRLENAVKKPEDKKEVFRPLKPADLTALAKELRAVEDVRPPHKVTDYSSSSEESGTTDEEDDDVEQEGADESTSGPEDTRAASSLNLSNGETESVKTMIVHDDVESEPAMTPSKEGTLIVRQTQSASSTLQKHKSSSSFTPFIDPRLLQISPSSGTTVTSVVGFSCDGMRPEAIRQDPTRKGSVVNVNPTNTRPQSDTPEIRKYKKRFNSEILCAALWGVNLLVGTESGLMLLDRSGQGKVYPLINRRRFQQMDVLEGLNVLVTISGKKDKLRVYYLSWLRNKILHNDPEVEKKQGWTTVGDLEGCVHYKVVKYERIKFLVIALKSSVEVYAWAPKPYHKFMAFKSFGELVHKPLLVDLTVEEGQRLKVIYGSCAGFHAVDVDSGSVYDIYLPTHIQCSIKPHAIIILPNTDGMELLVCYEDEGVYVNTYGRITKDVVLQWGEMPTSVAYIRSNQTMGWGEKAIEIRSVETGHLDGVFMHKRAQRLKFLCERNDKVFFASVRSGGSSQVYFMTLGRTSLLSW
Chain of Ribosomal protein S6 kinase beta-1 (Homo sapiens) (P23443 whole entry, looked up): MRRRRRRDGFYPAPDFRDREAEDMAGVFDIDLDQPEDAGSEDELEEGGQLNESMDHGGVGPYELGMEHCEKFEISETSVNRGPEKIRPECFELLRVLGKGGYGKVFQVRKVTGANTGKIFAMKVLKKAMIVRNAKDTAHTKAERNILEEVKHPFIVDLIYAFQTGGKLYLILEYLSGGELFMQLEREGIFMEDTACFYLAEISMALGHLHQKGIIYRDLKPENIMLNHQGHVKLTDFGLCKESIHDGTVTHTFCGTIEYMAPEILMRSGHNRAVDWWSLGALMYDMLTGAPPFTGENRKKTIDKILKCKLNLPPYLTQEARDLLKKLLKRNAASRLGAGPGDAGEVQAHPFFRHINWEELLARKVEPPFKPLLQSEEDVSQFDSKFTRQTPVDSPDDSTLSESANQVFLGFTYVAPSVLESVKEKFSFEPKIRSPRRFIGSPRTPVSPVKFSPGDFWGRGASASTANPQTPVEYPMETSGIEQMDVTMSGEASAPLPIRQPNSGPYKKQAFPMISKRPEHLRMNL
Chain of NUAK family SNF1-like kinase 2 (Homo sapiens) (Q9H093 whole entry): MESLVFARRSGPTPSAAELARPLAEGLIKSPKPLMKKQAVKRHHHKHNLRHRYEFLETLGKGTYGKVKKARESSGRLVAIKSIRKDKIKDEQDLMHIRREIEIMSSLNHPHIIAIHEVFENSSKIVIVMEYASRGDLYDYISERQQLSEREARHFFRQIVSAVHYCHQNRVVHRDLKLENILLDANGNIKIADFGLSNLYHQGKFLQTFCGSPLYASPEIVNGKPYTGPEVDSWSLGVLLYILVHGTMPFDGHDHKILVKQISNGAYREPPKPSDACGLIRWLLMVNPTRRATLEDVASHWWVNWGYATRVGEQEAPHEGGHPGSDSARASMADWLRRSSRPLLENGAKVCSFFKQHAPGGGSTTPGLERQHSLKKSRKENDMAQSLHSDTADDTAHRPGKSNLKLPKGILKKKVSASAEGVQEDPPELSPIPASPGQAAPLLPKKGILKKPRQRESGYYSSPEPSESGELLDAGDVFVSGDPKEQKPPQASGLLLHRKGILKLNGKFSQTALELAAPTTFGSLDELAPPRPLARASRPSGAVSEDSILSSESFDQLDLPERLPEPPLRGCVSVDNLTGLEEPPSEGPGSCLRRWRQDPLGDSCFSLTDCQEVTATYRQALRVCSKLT

## CCC(F)(F)c1cc(N2CCC(S(C)(=O)=O)CC2)nc2sc(C(N)=O)c(N)c12 [BI-605906]
[1]
  residual activity: 66.2%
[2]
  residual activity: 112%
[3]
  residual activity: 99%
[4]; Compound concentration 1.0 uM
  residual activity: 95%
[4]; Compound concentration 10.0 uM
  residual activity: 89%
[5]
  residual activity: 96%
[6]
  inhibition: 8%
[7]
  residual activity: 105%
[8]; compound concentration 1 uM
  activity at 1 µM: 104% (not active)
[8]; compound concentration 3 uM
  activity at 3 µM: 94% (not active)
[8]; compound concentration 10 uM
  activity at 10 µM: 91% (not active)
[8]; compound concentration 30 uM
  activity at 30 µM: 77% (not active)
[8]; compound concentration 100 uM
  activity at 100 µM: 41.5%
[9]
  residual activity: 65%
[10]
  residual activity: 98%
[11]
  residual activity: 63.8%
[12]
  residual activity: 98%
[13]
  residual activity: 86%
[14]
  residual activity: 90%
[15]
  residual activity: 34%
[16]
  residual activity: 98%
[17]
  residual activity: 91%
[18]; Compound concentration 1.0 uM
  residual activity: 92%
[18]; Compound concentration 10.0 uM
  residual activity: 30%
[19]; Compound concentration 1.0 uM
  residual activity: 94%
[19]; Compound concentration 10.0 uM
  residual activity: 66%
[20]
  residual activity: 90%
[21]
  inhibition: 14.4%
[22]
  residual activity: 62%
[23]
  residual activity: 88%
[24]
  residual activity: 110%
[25]
  residual activity: 98%
[26]
  residual activity: 100%
[27]
  residual activity: 93%
[28]
  residual activity: 94%
[29]
  residual activity: 90%
[30]
  inhibition: 3.97%
[31]
  residual activity: 87%
[32]; Compound concentration 1.0 uM
  residual activity: 89%
[32]; Compound concentration 10.0 uM
  residual activity: 101%
[33]
  residual activity: 95%
[34]
  residual activity: 97%
[35]
  residual activity: 100%
[36]
  residual activity: 91%
[37]
  residual activity: 97%
[38]
  residual activity: 99%
[39]
  residual activity: 91%
[40]
  residual activity: 94%
[41]
  residual activity: 113%
